Patent US11890324B2, “Compounds for use in inducing myocardial perfusion recovery” (Epoqe Pharma ApS, priority 2018, dated 2024)
Several values for one entry are separate records, joined by “and”; a condition that tells them apart may be missing. Identical values can stand only once. Entries after “also recorded” stand apart in the source; their conditions may differ.

Legend:
CGRP receptor = target: T1, CGRP receptor (Homo sapiens, UniProt O60894+Q16602); conditions: literature (Sheykhzade 2018; Nilsson 2016); cited from earlier work
T1 construct: host or cells: naturally occurring cells, recombinant CGRP receptor expressing cell lines, isolated artery segments (none specified)

[1] = system: coronary (left anterior descending artery, LAD) artery segments; test: Vasodilation of isolated precontracted artery segments (wire myograph), coronary artery; type: cell-based, rat
Protocol: (§1) Basilar, mesenteric and coronary arteries were isolated immediately and ring artery segments were stored in ice cold PSS buffer before being mounted on 40 μm stainless steel wires in a Multi Wire Myograph System organ bath (model 610M, Danish Myo Technology A/S, Denmark). Each segment was immersed in 37° C. PSS solution, continuously aerated with 5% CO2/95% O2 to maintain pH 7.4. […] One wire was connected to a micrometer screw enabling adjustments of the distance between the wires. The other wire was connected to a force displacement transducer attached to an analogue-digital converter unit (ADInstruments, Chalgrove, UK).
(§2) Measurements of vascular tone were recorded using the data acquisition hardware Power Lab unit (ADInstruments). To ensure optimal conditions for maximal force development, each artery segment was carefully stretched to 90% of the internal circumference that the vessel would have under the passive transmural pressure of 100 mm Hg. Following an equilibration period of approximately 20 min, each segment was exposed twice to KPSS to confirm smooth muscle cell viability and the reproducibility of depolarization-induced contractions.
After 15 min equilibration, a stable precontraction tone (50-80% of the KPSS-induced steady state contraction) was induced in arterial segments by PGF2α (3-10 μM). […]
Vasodilation is expressed as percentage of the remaining precontraction tone induced by PGF2α. […] Active tension was determined by subtracting the passive tension (resting tension in PSS) from the total tension (during KPSS or PGF2α challenge).
(§3) All pharmacological data were analysed using Prism 7.02 (GraphPad Software Inc., San Diego, CA) and given as mean±S.E.M. For all analyses, the data were unweighted and each y value (mean of replicates for each individual experiment) was considered an individual point.
(§4) Differences in pEC50 and Emax values were analysed with paired (animal) t-tests and considered significant as P<0.05.

[2] = system: peripheral (mesenteric) artery segments; test: Vasodilation of isolated precontracted artery segments (wire myograph), mesenteric artery; type: cell-based, rat
Protocol: as §1, §2
(§5) After 15 min equilibration, a stable precontraction tone (50-80% of the KPSS-induced steady state contraction) was induced in arterial segments by PGF2α (3-10 μM).
(§6) Concentration-dependent vasodilatory responses of artery segments were normalized as percentage of precontraction remaining.
(§7) Vasodilation is expressed as percentage of the remaining precontraction tone induced by PGF2α. Vessel wall tension=Force/(vessel wall length), where vessel wall length=2×segment length. Active tension was determined by subtracting the passive tension (resting tension in PSS) from the total tension (during KPSS or PGF2α challenge).
as §3, §4

[3] = system: cerebral (basilar) artery segments; test: Vasodilation of isolated precontracted artery segments (wire myograph), basilar artery; type: cell-based, rat
Protocol: as §1, §2, §5, §6, §7, §3, §4

[4] = system: coronary LAD artery segments; test: CGRP-agonist sensibilization: repeated dose-response and artery culture, coronary LAD; type: cell-based, rat
From the text: (§8) Artery segments were divided for comparison of the effect of Compound I and CGRP in fresh and cultured artery segments, respectively.

[5] = system: mesenteric artery segments; test: CGRP-agonist sensibilization: repeated dose-response and artery culture, mesenteric artery; type: cell-based, rat; conditions: isolated mesenteric artery
From the text: as §8

[6] = system: hypertension in experimental animals; conditions: cited from earlier work
[7] = system: rats with acute myocardial infarction (permanent LAD occlusion); test: Rat model of acute myocardial infarction (permanent LAD occlusion), myocardial perfusion imaging by SPECT/CT
Protocol: Experimental myocardial infarction is induced by LAD ligation in rats. Size of the acute myocardial perfusion defect is determined by myocardial perfusion imaging using SPECT/CT. […] All surviving rats underwent follow-up myocardial perfusion imaging using SPECT/CT 21 days after the infarct to determine the final infarct size.
AMI surgery was conducted using the procedure for permanent LAD occlusion.
The rats were anaesthetized with 4% sevoflurane. Rats were intubated and ventilated (UNO micor-ventilator-O3, Netherlands) and maintained anaesthetized with sevuflorane 2.5% to 4%. Rats were placed on a heated surface during surgery. In the rat's tail vein a 24G intravenous catheter was placed (Vasofix® Safety, Braun, Denmark). Before incision the rats were pain treated subcutaneously with Buprenorphine 0.05 mg/kg. After surgery the rats were paintreated four times the first 24 hours and three times the next 24-72 hours.
After insuring sterile surgical conditions, an incision was made in the skin and a thoracotomy was performed. This was placed at either the third or fourth intercostal space depending on size. The pericardium was identified and opened. After inspection of the heart, the LAD was identified and ligated caudal of its origin with a 5-0 polypropylene suture. The myocardium was visually observed for ischemia. If there was no discoloration of the myocardium, another suture was made until ischemia was confirmed by discoloration of the myocardium. One minute after ligation, the rats were injected intravenously with 99-technetium sestamibi to determine the acute perfusion defect. After injection of sestamibi, suture type vicryl 4-0 was used to close the thoracotomy, muscle layer and skin.
Rats underwent single photon emission computer tomography (SPECT) on the day of the surgery and 21 days post-surgery to determine acute and final perfusion defect size. Imaging was performed on a preclinical SPECT/CT scanner (Mediso Nanoscan, Hungary). The rats were anesthetized with sevuflorane 4% for SPECT-scan to be obtained. On the day of the surgery, the rats were perioperatively injected with 99-technetium Sestamibi (median 106 mBq [99; 116]) as described above. On the 21-days follow-up the rats were anesthetized with sevoflurane 4%. In the rat's tail vein an 24G intravenous catheter was placed (Vasofix® Safety, Braun, Denmark). After the catheter was placed, the rats were injected with 99-tecnetium (median 122 [106; 129]).

[8] = all completers, 21 days after infarct, mean ± SEM
[9] = subgroup with acute perfusion defect < 15%, 21 days, mean ± SEM

T1 sequence (Q16602 23-461): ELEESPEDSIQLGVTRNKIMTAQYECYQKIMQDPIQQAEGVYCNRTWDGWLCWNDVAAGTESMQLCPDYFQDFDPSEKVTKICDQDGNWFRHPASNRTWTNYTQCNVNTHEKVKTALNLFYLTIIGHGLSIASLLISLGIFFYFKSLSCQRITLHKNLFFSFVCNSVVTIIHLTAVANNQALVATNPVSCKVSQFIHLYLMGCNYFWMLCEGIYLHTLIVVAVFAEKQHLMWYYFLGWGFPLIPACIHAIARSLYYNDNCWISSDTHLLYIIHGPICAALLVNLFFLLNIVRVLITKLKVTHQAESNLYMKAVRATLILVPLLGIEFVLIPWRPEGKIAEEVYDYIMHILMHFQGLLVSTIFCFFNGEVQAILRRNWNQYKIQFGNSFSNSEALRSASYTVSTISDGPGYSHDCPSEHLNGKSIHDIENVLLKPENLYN
T1 sequence (O60894 27-148): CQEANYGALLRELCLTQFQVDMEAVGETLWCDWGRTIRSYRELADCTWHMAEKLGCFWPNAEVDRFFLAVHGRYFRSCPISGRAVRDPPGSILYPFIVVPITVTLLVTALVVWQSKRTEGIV

Substance: N-alpha-[2-(2-{2-[(S)-4-Carboxy-4-(17-carboxyheptadecanoylamino)butyryl-amino]ethoxy}ethoxy)acetyl](Ser1]beta-human CGRP peptide [Compound II]
- In vitro potency lower than that of CGRP (CGRP receptor): approximately 10 times

Substance: N-alpha-[2-(2-{2-[(S)-4-Carboxy-4-(17-carboxyheptadecanoylamino)-butyrylamino]-ethoxy}ethoxy)acetyl](Ser1]alpha-human CGRP peptide [Compound I]
- Vasodilation efficacy compared with CGRP (in words) ([1]; coronary artery): comparable efficacy; also recorded: not different
- Potency ratio (EC50 CGRP: EC50 Compound 1) ([1]; coronary artery segments): ~1
- Vasodilatory potency compared with CGRP (in words) ([1]; coronary artery segments): equipotent; also recorded: similar; also recorded: not different
- Potency difference between CGRP and Compound I ([2]; mesenteric artery): 5-10 fold
- Potency ratio (EC50 CGRP: EC50 Compound 1) ([2]; mesenteric artery): 0.1-0.2
- Vasodilation efficacy compared with CGRP (in words) ([2]; mesenteric artery): comparable efficacy
- Vasodilatory potency compared with CGRP (in words) ([2]; mesenteric artery): lower
- Potency in peripheral compared with coronary artery (in words) ([2]; peripheral (mesenteric) versus coronary artery): not lower
- Vasodilation efficacy compared with CGRP (in words) ([3]; basilar artery): comparable efficacy
- Vasodilatory potency compared with CGRP (in words) ([3]; basilar artery): lower
- Potency difference between CGRP and Compound I ([3]; cerebral artery): 5-10 fold
- Potency ratio (EC50 CGRP: EC50 Compound 1) ([3]; cerebral artery): 0.1-0.2
- Effect of repeated cumulative stimulation on potency ratio Compound I/CGRP (in words) [4]: does not change the potency ratio
- Effect of artery culture on CGRP-agonist-induced vasodilation (in words) ([4]; culture 24 h at 37° C. in absence and presence of 10 nM Compound I): induce sensibilization
- Effect of repeated cumulative stimulation on potency (in words) ([4]; second dose-response curve 90-120 minutes after the first): shift in potency towards significant sensitization
- Potency ratio between Compound I and CGRP after repeated dose-response (in words) [5]: maintained
- CGRP-agonist-induced CGRP sensibilization (in words) ([5]; repeated dose-response and culture): no CGRP-agonist-induced CGRP sensibilization
- In vitro potency lower than that of CGRP (CGRP receptor): approximately 10 times
- Effect on hypertension (in words) [6]: reversing hypertension and complications of hypertension
- Perfusion recovery, % [7, 8]: 55.1±6.6% and 55.1 ± 6.4%
- Perfusion recovery, SRS [7, 8]: 6.5 ± 1 SRS
- Animals surviving the surgery and the 3 weeks recovery period (survival rate) ([7]; rat, in vivo): 75%
- Effect on survival rate (in words) ([7]; rat, in vivo): tendency (not statistically significant) towards an increased survival rate
- Further rats that died during the 21-days follow-up period ([7]; rat, in vivo): 14%
- Perfusion recovery in subgroup, % [7, 9]: 66.2 ± 9.0%
- Perfusion recovery in subgroup, SRS [7, 9]: 3.8 ± 0.6 SRS
- Effect on myocardial perfusion recovery (in words) ([7]; treatment for 3 successive days after experimental AMI, 3 weeks): large improvement of myocardial perfusion recovery; also recorded: significant improved recovery of perfusion defect
